The target in one assay is T1, COX-2 (Ovis aries, UniProt P79208).
T1 construct: purified enzyme from ewe placenta; from tissue; host or cells: ewe placenta (purified enzyme)
T1 sequence (P79208 17-603): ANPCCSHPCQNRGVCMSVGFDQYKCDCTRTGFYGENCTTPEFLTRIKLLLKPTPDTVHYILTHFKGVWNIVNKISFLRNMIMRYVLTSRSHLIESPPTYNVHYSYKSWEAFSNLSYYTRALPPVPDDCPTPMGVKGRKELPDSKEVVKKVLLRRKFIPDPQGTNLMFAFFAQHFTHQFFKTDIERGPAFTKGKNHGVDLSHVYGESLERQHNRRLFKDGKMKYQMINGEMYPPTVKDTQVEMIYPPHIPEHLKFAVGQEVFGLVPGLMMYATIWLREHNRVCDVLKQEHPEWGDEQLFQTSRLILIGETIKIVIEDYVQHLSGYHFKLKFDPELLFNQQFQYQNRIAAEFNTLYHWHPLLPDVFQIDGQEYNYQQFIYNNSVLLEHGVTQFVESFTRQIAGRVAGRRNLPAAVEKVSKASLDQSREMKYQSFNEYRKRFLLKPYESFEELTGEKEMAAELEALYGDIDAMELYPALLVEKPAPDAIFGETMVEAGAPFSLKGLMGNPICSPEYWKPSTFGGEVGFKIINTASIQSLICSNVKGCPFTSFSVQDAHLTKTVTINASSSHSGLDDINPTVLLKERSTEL
The assay is described as follows: inhibition of COX-2 enzymatic activity (PGE2 by EIA). The format is biochemical, ewe. As to conditions: for IC50: purified enzyme from ewe placenta, arachidonic acid 4 μM, n=1 to 4 determinations; for Selectivity COX-1/COX-2 ratio: ratio of IC50 COX-1 / IC50 COX-2. How it is done: (§1) Inhibition of the COX-1 and COX-2 Enzymatic Activities The test molecule is preincubated for 10 minutes at 25° C. with 2 U of COX-1 (purified enzyme from ram seminal vesicles) or 1 U of COX-2 (purified enzyme from ewe placenta). Arachidonic acid (6 μM for COX-1, 4 μM for COX-2) is added to the reaction medium and incubation is carried out for 5 minutes at 25° C. When incubation has ended, the enzymatic reaction is stopped by the addition of 1 N HCl and the PGE2 produced is determined by EIA. The results are expressed as IC50, the concentration in nM which corresponds to 50% inhibition of the maximal enzymatic activity on the COX-1 and COX-2 (n=1 to 4 determinations).

Another assay concerns the target T2, COX-1 (Ovis aries, UniProt P05979).
T2 construct: purified enzyme from ram seminal vesicles; from tissue; host or cells: ram seminal vesicles (purified enzyme)
T2 sequence (P05979 25-600): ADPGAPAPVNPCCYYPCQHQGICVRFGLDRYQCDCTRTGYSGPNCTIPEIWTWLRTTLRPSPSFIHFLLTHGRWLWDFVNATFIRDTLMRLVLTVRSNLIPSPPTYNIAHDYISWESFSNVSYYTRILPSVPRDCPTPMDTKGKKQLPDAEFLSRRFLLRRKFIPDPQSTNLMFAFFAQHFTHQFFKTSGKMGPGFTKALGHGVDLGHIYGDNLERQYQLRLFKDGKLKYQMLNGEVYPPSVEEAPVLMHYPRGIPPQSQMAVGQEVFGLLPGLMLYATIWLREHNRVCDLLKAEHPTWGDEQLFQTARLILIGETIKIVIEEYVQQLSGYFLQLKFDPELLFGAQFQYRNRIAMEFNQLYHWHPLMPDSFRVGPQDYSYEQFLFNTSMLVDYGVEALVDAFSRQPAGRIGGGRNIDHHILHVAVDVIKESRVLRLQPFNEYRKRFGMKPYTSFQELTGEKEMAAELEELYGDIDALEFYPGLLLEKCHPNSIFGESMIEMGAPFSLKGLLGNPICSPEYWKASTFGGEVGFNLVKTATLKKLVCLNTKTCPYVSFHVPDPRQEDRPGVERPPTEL
As to the kind of experiment: inhibition of COX-1 enzymatic activity (PGE2 by EIA). The note with it: purified enzyme from ram seminal vesicles; arachidonic acid 6 μM; n=1 to 4 determinations. The format is biochemical. The procedure:
as §1

Another assay has as its system carrageenin oedema. As to the kind of experiment: anti-inflammatory activity, carrageenin oedema test. The class given is in vivo. The note with it: rat, oral; dose which induces 50% decrease in the volume of the oedema; read-out: Anti-inflammatory activity ID50. The procedure:
(§2) The anti-inflarnmatory activity of the compounds of the Examples was evaluated by the carrageenin oedema method and the analgesic activity was evaluated by the kaolin arthritis method.
Anti-inflammatory Activity:
The anti-inflammatory activity is evaluated in the rat by the carrageenin oedema test. The product is administered orally at a rate of 2.5 ml/100 g (n=6 animals per dose) 2 h 30 min after oral hyperhydration (2.5 m/100 g); one hour after administration of the product, the oedema is induced by the plantar subcutaneous injection of 2% aqueous carrageenin solution. The results are expressed as the ID50, the dose in mg/kg which induces 50% decrease in the volume of the oedema, calculated by linear regression using the maximum oedema volume obtained for each product tested.
(In general: Carrageenan injected into the paw causes an acute inflammation.)

The subject of a further assay is kaolin arthritis. As to the kind of experiment: analgesic activity, kaolin arthritis test. The note with it: rat, oral; dose which induces 50% decrease of the maximum quotation in the control batch; read-out: Analgesic activity DE50. The format is in vivo. How it is done: as §2
The analgesic activity is evaluated in the rat by the kaolin arthritis test. Thirty minutes after the intra-articular administration of 10% aqueous kaolin suspension, the product is administered orally at a rate of 1 ml/100 g (n=10 animals per dose). The results are expressed as DE50, the dose in mg/kg which induces 50% decrease of the maximum quotation in the control batch, calculated by linear regression.

Each structure is given as a SMILES string.

This note sets out measurements from US6180651A, “Diarylmethylidenefuran derivatives, processes for their preparation and their uses in therapeutics” (Bristol-Myers Squibb, priority 1996, dated 2001).

What is called IC50 is the midpoint of a concentration-inhibition curve. Low readings indicate inhibition by little substance, high ones a need for much substance. Consider `CS(=O)(=O)c1ccc(/C(=C2\CCOC2=O)c2ccc(Br)cc2)cc1` [100 (Z isomer), (Z)-3-[1-(4-bromophenyl)-1-(4-methanesulphonylphenyl)methylidene]-dihydro-furan-2-one], for which, on COX-2, the IC50 turned out to be 0.166 µM and the “Selectivity COX-1/COX-2 ratio” value worked out at 373. This molecule also gave an IC50 on COX-1 of 62 µM. The ED50 in the assay with carrageenin oedema amounted to 3.6 mg/kg.

With `CS(=O)(=O)c1ccc(/C(=C2/CCOC2=O)c2ccc(Cl)cc2)cc1` [8 (E isomer), (E)-3-[1-(4-chlorophenyl)-1-(4-methanesulphonylphenyl)methylidene]dihydrofuran-2-one], the ED50 with carrageenin oedema is over 30 mg/kg.

On to `CS(=O)(=O)c1ccc(/C(=C2\CCOC2=O)c2cccc(Cl)c2)cc1` [23 (Z isomer), (Z)-3-[1-(3-Chlorophenyl)-1-(4-methanesulphonylphenyl)-methylidene]dihydrofuran-2-one], for which the ED50 in the assay with kaolin arthritis is 7.2 mg/kg; in the assay on carrageenin oedema, 9.3 mg/kg.

In the case of `CS(=O)(=O)c1ccc(/C(=C2\CCOC2=O)c2cccc(F)c2)cc1` [13 (Z isomer), (Z)-3-[1-(3-fluorophenyl)-1-(4-methanesulphonylphenyl)methylidene]dihydrofuran-2-one], the IC50 was 0.61 µM against COX-2 and over 100 µM against COX-1. For the same molecule, the “Selectivity COX-1/COX-2 ratio” value on COX-2 was over 164. Further, the values for the ED50 with kaolin arthritis and in the assay on carrageenin oedema were 14.1 mg/kg and 3.9 mg/kg, respectively.

Consider `CS(=O)(=O)c1ccc(/C(=C2\CCOC2=O)c2ccc(Cl)c(Cl)c2)cc1` [18 (Z isomer), (Z)-3-[1-(3,4-Dichlorophenyl)-1-(4-methanesulphonylphenyl)-methylidene]dihydrofuran-2-one], for which the IC50 was found to be 0.132 ± 0.032 µM against COX-2 and 73.2 µM on COX-1. Moreover, the “Selectivity COX-1/COX-2 ratio” value at COX-2 amounted to 555. Moreover, the ED50 in the assay with kaolin arthritis was 6.1 mg/kg; with carrageenin oedema, over 30 mg/kg.

As for `CS(=O)(=O)c1ccc(/C(=C2\CCOC2=O)c2ccc(F)c(Cl)c2)cc1` [95 (Z isomer), (Z)-3-[1-(3-chloro-4-fluorophenyl)-1-(4-methanesulphonylphenyl)methylidene]-dihydrofuran-2-one], the IC50 came to 0.205 ± 0.035 µM at COX-2 and 309 ± 27.5 µM on COX-1. The “Selectivity COX-1/COX-2 ratio” value at COX-2 amounted to 1510. Moreover, the ED50 worked out at 5.8 mg/kg with kaolin arthritis and 1.6 mg/kg with carrageenin oedema.

With `NS(=O)(=O)c1ccc(/C(=C2\CCOC2=O)c2ccc(F)cc2)cc1` [60 (E isomer), (E)-4-[(4-fluorophenyl)-(2-oxo-dihydrofuran-3-ylidene)methyl]benzenesulphonamide], the half-maximal inhibitory concentration (IC50) at COX-2 stood at 0.296 ± 0.107 µM; against COX-1 it was 81 µM. Moreover, the “Selectivity COX-1/COX-2 ratio” value at COX-2 is listed as 274. In addition, the ED50 in the assay on kaolin arthritis turned out to be 20.9 mg/kg; in the assay on carrageenin oedema it was 1.7 mg/kg.

On to `CS(=O)(=O)c1ccc(/C(=C2\CCOC2=O)c2ccc(F)cc2F)cc1` [75 (Z isomer), (Z)-3-[1-(2,4-difluorophenyl)-1-(4-methanesulphonylphenyl)methylidene]-dihydro-furan-2-one], for which the ED50 with carrageenin oedema was determined as 4.6 mg/kg.

Take `NS(=O)(=O)c1ccc(/C(=C2\CCOC2=O)c2ccc(F)c(Cl)c2)cc1` [143 (Z isomer), (Z)-4-[(3-chloro-4-fluorophenyl)-(2-oxo-dihydro-furan-3-ylidene)methyl]benzenesulphonamide]: the IC50 at COX-2 was 0.073 µM; against COX-1 it was 12.7 µM. Besides, the “Selectivity COX-1/COX-2 ratio” value on COX-2 stood at 174. The ED50 was found to be 6.4 mg/kg in the assay on kaolin arthritis and 0.7 mg/kg in the assay with carrageenin oedema.

Regarding `CS(=O)(=O)c1ccc(/C(=C2/CCOC2=O)c2cccc(Cl)c2)cc1` [23 (E), (E)-3-[1-(3-chlorophenyl)-1-(4-methanesulphonylphenyl)methyl-idene]-dihydrofuran-2-one], at COX-2, the IC50 was found to be 0.627 µM and the “Selectivity COX-1/COX-2 ratio” value is over 159. The IC50 against COX-1 was over 100 µM.

For the molecule `Cc1cc(/C(=C2/CCOC2=O)c2ccc(S(N)(=O)=O)cc2)ccc1F` [135 (Z isomer), (Z)-4-[(4-fluoro-3-methylphenyl)-(2-oxo-dihydrofuran-3-ylidene)methyl]benzenesulphonamide], the results for the half-maximal inhibitory concentration (IC50) at COX-2 and on COX-1 were 0.245 ± 0.076 µM and 19.7 µM, respectively. For the same molecule, at COX-2, the “Selectivity COX-1/COX-2 ratio” value is on record as 80. The results for the ED50 with kaolin arthritis and in the assay on carrageenin oedema were 6.1 mg/kg and 3.3 mg/kg, respectively.

On to `Cc1ccc(/C(=C2/CCOC2=O)c2ccc(S(N)(=O)=O)cc2)cc1F` [130 (Z isomer), (Z)-4-[(3-fluoro-4-methylphenyl)-(2-oxo-dihydrofuran-3-ylidene)methyl]benzenesulphonamide], for which the IC50 against COX-2 was 0.131 ± 0.019 µM; at COX-1, 45.7 µM. At COX-2, the “Selectivity COX-1/COX-2 ratio” value came to 349. In addition, the ED50 in the assay with kaolin arthritis was 2.4 mg/kg; in the assay on carrageenin oedema, 2 mg/kg.

Regarding `Cc1cccc(/C(=C2/CCOC2=O)c2ccc(S(C)(=O)=O)cc2)c1` [49 (Z isomer), (Z)-3-[1-(3-Methylphenyl)-1-(4-methanesulphonylphenyl)-methylidene]dihydrofuran-2-one], the IC50 was 0.418 µM against COX-2 and over 100 µM at COX-1. Further, the “Selectivity COX-1/COX-2 ratio” value on COX-2 was over 239. The ED50 in the assay on kaolin arthritis and in the assay with carrageenin oedema was over 30 mg/kg each time.

As for `CC1(C)C/C(=C(/c2ccc(F)cc2)c2ccc(S(C)(=O)=O)cc2)C(=O)O1` [31 (E isomer), (E)-5,5-Dimethyl-3-[1-(4-fluorophenyl)-1-(4-methanesulphonylphenyl)methylidene]dihydrofuran-2-one], the IC50 on COX-2 was 0.78 µM; on COX-1, over 100 µM. In addition, at COX-2, the “Selectivity COX-1/COX-2 ratio” value is listed as over 128. Besides, the ED50 in the assay with kaolin arthritis is 14.2 mg/kg; in the assay with carrageenin oedema it was 3.1 mg/kg.

Regarding `CS(=O)(=O)c1ccc(/C(=C2\CCOC2=O)c2cccc(Br)c2)cc1` [90 (Z isomer), (Z)-3-[1-(3-bromophenyl)-1-(4-methanesulphonylphenyl)methylidene]-dihydro-furan-2-one], on COX-2, the midpoint of inhibition, the IC50, lay at 0.458 µM and the “Selectivity COX-1/COX-2 ratio” value was over 218. The same molecule returned an IC50 on COX-1 of over 100 µM. In the assay on carrageenin oedema, the ED50 amounted to 17.2 mg/kg.

Take `CS(=O)(=O)c1ccc(/C(=C2\CCOC2=O)c2cc(Cl)cc(Cl)c2)cc1` [70 (Z isomer), (Z)-3-[1-(3,5-dichlorophenyl)-1-(4-methanesulphonylphenyl)methylidene]-dihydro-furan-2-one]: the IC50 was 0.225 µM on COX-2 and over 100 µM on COX-1. The “Selectivity COX-1/COX-2 ratio” value on COX-2 is given as over 444. The ED50 is 21.5 mg/kg with kaolin arthritis and 5.5 mg/kg in the assay with carrageenin oedema.

Turning to `CCC1C/C(=C(/c2ccc(F)cc2)c2ccc(S(C)(=O)=O)cc2)C(=O)O1` (stereo not drawn) [34 (E isomer), (E)-5-Ethyl-3-[1-(4-fluorophenyl)-1-(4-methanesulphonylphenyl)methylidene]dihydrofuran-2-one], at COX-2, the midpoint of inhibition, the IC50, lay at 0.694 µM and the “Selectivity COX-1/COX-2 ratio” value is over 144. Further, in the assay with kaolin arthritis, the ED50 worked out at 38.8 mg/kg. In addition, on COX-1, the IC50 was over 100 µM.
